Measurements published in patent US20100152129A1 (priority 2008, published 2010).

Columns and labels:
Assay type in all cases: cell-based
Panc-1 cells [1] = test: Cell cycle analysis by DNA content (propidium iodide, flow cytometry); settings: control 5.5%
Method: Understanding the status of cells cycles G1, S, G2 and M is indicative of the cytotoxic effect including apoptosis and DNA damage of anticancer drugs. In the current study FACS was used to measure the cell cycle stages in Panc 1 cells after exposure to anticancer drugs including drug combination. The synergistic effect of Gemcitabine with […]-00 on Panc-1 cancer cells was analyzed using propidium iodide based cell cycle analysis where total population of cells was sorted as sub G0, G1, S and G2/M populations according to total fluorescent intensity. […]-00 at a final concentration of 60 nM, 240 nM and 480 nM and Gemcitabine at a final concentration of 1 nM, 3 nM and 10 nM were analyzed in single dose and in all possible combinations of the dose range for the Gemcitabine and […]-00. Panc-1 cells were treated with Gemcitabine for 0 to 24 hrs. After 24 hrs the cells were washed twice with plain MEM. Fresh MEM with 10% serum (2 mL/well) was added to the wells, followed by treatment with […]-00 for 24 hrs to 96 hrs. After 96 hrs the treated cells were harvested, fixed, stained with propidium iodide and analyzed for specific cell arrest using DNA content analysis by flow cytometry. Adherent cells were trypsinized and washed with PBS or HBSS without Ca++ and Mg++ containing EDTA pH 8.0 and BSA. They were further isolated, centrifuged and total number of cells were counted and recorded. […]

Panc-1 cells [2] = test: Propidium iodide-based fluorescence cytotoxicity assay; settings: single agent
Method: The combination of P276-00 and Gemcitabine was screened for its synergistic effect in Panc-1 cells using propidium iodide based fluorescence cytotoxicity assay.
Test System: The Panc-1 cell line was procured from ATCC (American Tissue type Culture Collection), USA. Catalog number: CRL-1469 and the frozen vial was stored in liquid nitrogen container. Propidium iodide dye was procured from Sigma-Aldrich, USA. Catalog number: P-4170-100 mg and it was stored at 2-8° C.
Method: Panc-1 cells were seeded at a density of 2000 cells/well, in a 200 μL in tissue culture grade 96 well plate and allowed to recover for 24 hrs in a humidified 5%±0.2 CO2 incubator at 37° C.±0.5° C. After 24 hrs, 1 μL of 200 X (200 times higher than required concentration is denoted as 200×) compound (dissolved in neat DMSO), as per Table 1 or 2 was added to the wells. The final DMSO concentration was 0.5% in wells. The plate was incubated for 24 hrs in humidified 5%±0.2 CO2 incubator at 37±0.5° C.
After 24 hrs Minimum Essential Medium (MEM) from the Gemcitabine treated wells was removed and washed two times with fresh MEM and followed by addition of 200 μL of fresh MEM per well. 1 μL of 200× (200 times higher than required concentration is denoted as 200×) compound (dissolved in neat DMSO) was then added as per the Table 1 and 2 designs. The final DMSO concentration was 0.5% in wells which also served as the vehicle control for the study. After 72 hrs the plate was removed from CO2 incubator and spent MEM aspirated from the wells and supplemented with fresh MEM. This was followed by addition of 25 μL of propidium iodide (50 μg/ml in medium) per well. The same plate was frozen at −80° C. for 24 hrs and then thawed and allowed to come to room temperature. The fluorescence at a wavelength of 530 nm excitation and 620 nm emission was read.
The percent cytotoxicity was calculated using the following formula

Panc-1 cells [3] = test: Protein expression using high content cell imaging system, and efficacy score; settings: for Efficacy score: cumulative over proteins of Table 7
Method: The data was generated using cell imaging system, where, cells after drug exposure were treated with protein specific antibody, followed by detection markers for the antibody. The images were generated and protein levels quantitated as an indication of drug effect.
Methodology: Panc-1 cells were seeded at a density of 5000 cells per well in 96 well plates and allowed recovery for 24 hrs in 5% CO2 incubator. After recovery, cells were challenged with Gemcitabine (IC30) for 24 hrs. After 24 hrs Gemcitabine was removed and fresh medium was added. […] The combination efficacy was identified against single treatments. At the end of the experiment Panc-1 cells were fixed and permeabilized. All the primary antibodies were added at a concentration according to manufacture protocol. After one hour incubation the cells were washed three times and labeled with secondary antibodies tagged with Dye Light 548 and nucleus was stained with Hoechest3342. After antibody labeling, cells were stained with the Cellomics whole Cell Stain Green to identify the cell's cytoplasmic area. Then all the plates were scanned in Cellomics ArrayScan® VTI HCS Reader. The results were analyzed using software that is designed for measuring the read from the imaging system.
Expression of proteins listed in Table 7 were determined in terms of fluorescence unit obtained by using target activation algorithm from High content imaging system from Cellomics. • Protein expression data expressed as fluorescent units from Table 7 were used to generate expression ratio by comparing drug treatments (individual or combination) against the normal control with no drug treatment. The ratio of expression which is considered as dys-regulation (1.5 fold above or below the range for up-regulation and down regulation respectively) is subtracted from the normal range (±1.5) and is used to measure the efficacy score.
Expression ratio=protein expression during drug treatment/protein expression under normal control.
Efficacy score =Cumulative score (expression ratio−±1.50) for all proteins.

[4] = 6 hours post treatment, control 1
[5] = 6 hours post treatment, control 3
[6] = 6 hours post treatment, control 6
[7] = 6 hours post treatment, control 7
[8] = 6 hours post treatment, control 8
[9] = 6 hours post treatment, control 74
[10] = 6 hours post treatment, control 80
[11] = 6 hours post treatment, control 147
[12] = 6 hours post treatment, control 501
[13] = 6 hours post treatment, control 627
[14] = 6 hours post treatment, control 635
[15] = 6 hours post treatment, control 819
[16] = 6 hours post treatment, control 829
[17] = 6 hours post treatment, control 830
[18] = 6 hours post treatment, control 1240
[19] = 16 hours post treatment, control 13
[20] = 16 hours post treatment, control 54
[21] = 16 hours post treatment, control 64
[22] = 16 hours post treatment, control 67
[23] = 16 hours post treatment, control 76
[24] = 16 hours post treatment, control 77
[25] = 16 hours post treatment, control 90
[26] = 16 hours post treatment, control 100
[27] = 16 hours post treatment, control 202
[28] = 16 hours post treatment, control 579
[29] = 16 hours post treatment, control 644
[30] = 16 hours post treatment, control 711
[31] = 16 hours post treatment, control 718
[32] = 16 hours post treatment, control 929
[33] = 16 hours post treatment, control 1109
[34] = 16 hours post treatment, control 2583
[35] = 36 hours post treatment, control 19
[36] = 36 hours post treatment, control 96
[37] = 36 hours post treatment, control 98
[38] = 36 hours post treatment, control 100
[39] = 36 hours post treatment, control 265
[40] = 36 hours post treatment, control 715
[41] = 36 hours post treatment, control 722
[42] = 36 hours post treatment, control 1093
[43] = 36 hours post treatment, control 1316
[44] = 36 hours post treatment, control 1410
[45] = 36 hours post treatment, control 1441
[46] = 36 hours post treatment, control 2840

CN1CC[C@@H](c2c(O)cc(O)c3c(=O)cc(-c4ccccc4Cl)oc23)[C@@H]1CO.Cl (relative stereo) [P276-00, (+)-trans-2-(2-Chloro-phenyl)-5,7-dihydroxy-8-(2-hydroxy-methyl-1-methyl-pyrrolidin-3-y1)-chromen-4-one hydrochloride]
population of cells in sub G0 (apoptotic cells) (Panc-1 cells [1]; 60 nM alone): 17.6% | % Cytotoxicity (Panc-1 cells [2]; 60 nM): 27% | % Cytotoxicity (Panc-1 cells [2]; 120 nM): 33% | % Cytotoxicity (Panc-1 cells [2]; 240 nM): 35% | % Cytotoxicity (Panc-1 cells [2]; 480 nM): 45% | % Cytotoxicity (Panc-1 cells [2]; 960 nM): 58% | PTN protein expression (Panc-1 cells [3]; [4]): 2 fluorescence units | GADD45-α protein expression (Panc-1 cells [3]; [5]): 10 fluorescence units | ID1 protein expression (Panc-1 cells [3]; [5]): 1 fluorescence units | P27 protein expression (Panc-1 cells [3]; [6]): 7 fluorescence units | CDC25B protein expression (Panc-1 cells [3]; [7]): 2 fluorescence units | CDKN2A protein expression (Panc-1 cells [3]; [8]): 76 fluorescence units | CCND1 protein expression (Panc-1 cells [3]; [9]): 84 fluorescence units | GAPDH protein expression (Panc-1 cells [3]; [10]): 96 fluorescence units | CASP3 protein expression (Panc-1 cells [3]; [11]): 152 fluorescence units | MMP-1 protein expression (Panc-1 cells [3]; [12]): 618 fluorescence units | COX15 protein expression (Panc-1 cells [3]; [13]): 907 fluorescence units | COX2 protein expression (Panc-1 cells [3]; [14]): 406 fluorescence units | BAX protein expression (Panc-1 cells [3]; [15]): 700 fluorescence units | VEGF protein expression (Panc-1 cells [3]; [16]): 618 fluorescence units | BCL2 protein expression (Panc-1 cells [3]; [17]): 376 fluorescence units | pRB protein expression (Panc-1 cells [3]; [18]): 1540 fluorescence units | Efficacy score (Panc-1 cells [3]; 6 hours): 4.7 | GADD45-α protein expression (Panc-1 cells [3]; [19]): 23 fluorescence units | CDC25B protein expression (Panc-1 cells [3]; [20]): 15 fluorescence units | CDKN2A protein expression (Panc-1 cells [3]; [21]): 9 fluorescence units | P27 protein expression (Panc-1 cells [3]; [22]): 12 fluorescence units | PTN protein expression (Panc-1 cells [3]; [23]): 12 fluorescence units | ID1 protein expression (Panc-1 cells [3]; [24]): 18 fluorescence units | CCND1 protein expression (Panc-1 cells [3]; [25]): 46 fluorescence units | GAPDH protein expression (Panc-1 cells [3]; [26]): 100 fluorescence units | CASP3 protein expression (Panc-1 cells [3]; [27]): 607 fluorescence units | VEGF protein expression (Panc-1 cells [3]; [28]): 264 fluorescence units | BCL2 protein expression (Panc-1 cells [3]; [29]): 81 fluorescence units | BAX protein expression (Panc-1 cells [3]; [30]): 644 fluorescence units | COX15 protein expression (Panc-1 cells [3]; [31]): 852 fluorescence units | MMP-1 protein expression (Panc-1 cells [3]; [32]): 264 fluorescence units | COX2 protein expression (Panc-1 cells [3]; [33]): 375 fluorescence units | pRB protein expression (Panc-1 cells [3]; [34]): 1400 fluorescence units | Efficacy score (Panc-1 cells [3]; 16 hours): 10.8 | GADD45-α protein expression (Panc-1 cells [3]; [35]): 31 fluorescence units | P27 protein expression (Panc-1 cells [3]; [36]): 5 fluorescence units | CCND1 protein expression (Panc-1 cells [3]; [37]): 25 fluorescence units | CDC25B protein expression (Panc-1 cells [3]; [37]): 4 fluorescence units | GAPDH protein expression (Panc-1 cells [3]; [37]): 2 fluorescence units | ID1 protein expression (Panc-1 cells [3]; [37]): 6 fluorescence units | PTN protein expression (Panc-1 cells [3]; [38]): 100 fluorescence units | CASP3 protein expression (Panc-1 cells [3]; [39]): 670 fluorescence units | BAX protein expression (Panc-1 cells [3]; [40]): 1120 fluorescence units | COX15 protein expression (Panc-1 cells [3]; [41]): 1327 fluorescence units | VEGF protein expression (Panc-1 cells [3]; [42]): 355 fluorescence units | MMP-1 protein expression (Panc-1 cells [3]; [43]): 355 fluorescence units | BCL2 protein expression (Panc-1 cells [3]; [44]): 374 fluorescence units | CDKN2A protein expression (Panc-1 cells [3]; [45]): 707 fluorescence units | pRB protein expression (Panc-1 cells [3]; [46]): 1657 fluorescence units | Efficacy score (Panc-1 cells [3]; 36 hours): 11.1

Nc1ccn([C@@H]2O[C@H](CO)[C@@H](O)C2(F)F)c(=O)n1 [Gemcitabine, 2′, 2′-difluorodeoxycytidine]
population of cells in sub G0 (apoptotic cells) (Panc-1 cells [1]; 1 nM alone): 16.85% | cytotoxicity at 0.0001 µM (Panc-1 cells [2]; Homo sapiens, PANC-1, 0.1 nM): 10% | PTN protein expression (Panc-1 cells [3]; [4]): 6 fluorescence units | GADD45-α protein expression (Panc-1 cells [3]; [5]): 4 fluorescence units | ID1 protein expression (Panc-1 cells [3]; [5]): 7 fluorescence units | P27 protein expression (Panc-1 cells [3]; [6]): 4 fluorescence units | CDC25B protein expression (Panc-1 cells [3]; [7]): 8 fluorescence units | CDKN2A protein expression (Panc-1 cells [3]; [8]): 60 fluorescence units | CCND1 protein expression (Panc-1 cells [3]; [9]): 83 fluorescence units | GAPDH protein expression (Panc-1 cells [3]; [10]): 84 fluorescence units | CASP3 protein expression (Panc-1 cells [3]; [11]): 115 fluorescence units | MMP-1 protein expression (Panc-1 cells [3]; [12]): 448 fluorescence units | COX15 protein expression (Panc-1 cells [3]; [13]): 1100 fluorescence units | COX2 protein expression (Panc-1 cells [3]; [14]): 462 fluorescence units | BAX protein expression (Panc-1 cells [3]; [15]): 892 fluorescence units | VEGF protein expression (Panc-1 cells [3]; [16]): 448 fluorescence units | BCL2 protein expression (Panc-1 cells [3]; [17]): 630 fluorescence units | pRB protein expression (Panc-1 cells [3]; [18]): 1318 fluorescence units | Efficacy score (Panc-1 cells [3]; 6 hours): 1.6 | GADD45-α protein expression (Panc-1 cells [3]; [19]): 70 fluorescence units | CDC25B protein expression (Panc-1 cells [3]; [20]): 50 fluorescence units | CDKN2A protein expression (Panc-1 cells [3]; [21]): 57 fluorescence units | P27 protein expression (Panc-1 cells [3]; [22]): 72 fluorescence units | PTN protein expression (Panc-1 cells [3]; [23]): 68 fluorescence units | ID1 protein expression (Panc-1 cells [3]; [24]): 62 fluorescence units | CCND1 protein expression (Panc-1 cells [3]; [25]): 66 fluorescence units | GAPDH protein expression (Panc-1 cells [3]; [26]): 98 fluorescence units | CASP3 protein expression (Panc-1 cells [3]; [27]): 570 fluorescence units | VEGF protein expression (Panc-1 cells [3]; [28]): 604 fluorescence units | BCL2 protein expression (Panc-1 cells [3]; [29]): 693 fluorescence units | BAX protein expression (Panc-1 cells [3]; [30]): 926 fluorescence units | COX15 protein expression (Panc-1 cells [3]; [31]): 1134 fluorescence units | MMP-1 protein expression (Panc-1 cells [3]; [32]): 604 fluorescence units | COX2 protein expression (Panc-1 cells [3]; [33]): 1151 fluorescence units | pRB protein expression (Panc-1 cells [3]; [34]): 1931 fluorescence units | Efficacy score (Panc-1 cells [3]; 16 hours): 7.6 | GADD45-α protein expression (Panc-1 cells [3]; [35]): 51 fluorescence units | COX2 protein expression (Panc-1 cells [3]; 36 hours post treatment, control 86): 55 fluorescence units | P27 protein expression (Panc-1 cells [3]; [36]): 67 fluorescence units | CCND1 protein expression (Panc-1 cells [3]; [37]): 75 fluorescence units | CDC25B protein expression (Panc-1 cells [3]; [37]): 29 fluorescence units | GAPDH protein expression (Panc-1 cells [3]; [37]): 59 fluorescence units | ID1 protein expression (Panc-1 cells [3]; [37]): 26 fluorescence units | PTN protein expression (Panc-1 cells [3]; [38]): 94 fluorescence units | CASP3 protein expression (Panc-1 cells [3]; [39]): 633 fluorescence units | BAX protein expression (Panc-1 cells [3]; [40]): 1783 fluorescence units | COX15 protein expression (Panc-1 cells [3]; [41]): 1990 fluorescence units | VEGF protein expression (Panc-1 cells [3]; [42]): 807 fluorescence units | MMP-1 protein expression (Panc-1 cells [3]; [43]): 807 fluorescence units | BCL2 protein expression (Panc-1 cells [3]; [44]): 698 fluorescence units | CDKN2A protein expression (Panc-1 cells [3]; [45]): 1483 fluorescence units | pRB protein expression (Panc-1 cells [3]; [46]): 2188 fluorescence units | Efficacy score (Panc-1 cells [3]; 36 hours): 7.4
